From patent US8927530B2, “Therapeutic combination comprising a PLK1 inhibitor and an antineoplastic agent” (priority 2009, dated 2015)
Where two headings read alike, the source gives them in different places.

What was measured:
[1] = system: HT29 human colon cancer tumors; conditions: for T-C: delay to reach 1 g tumor
Protocol: Balb, Nu/Nu male mice, from Harlan (Italy), were maintained, in agreement with the European Communities Council Directive no. […] Fragments of HT29 human colon cancer tumors were implanted subcutaneously. The treatment started when tumors were palpable. […] Tumor growth and body weight were measured every 3 days. Tumor growth was assessed by caliper. The two diameters were recorded and the tumor weight was calculated according to the following formula: length (mm)×width^2/2. […] This delay (T-C value) was defined as the difference of time (in days) required for the treatment group (T) and the control group (C) tumors to reach a predetermined size (1 g). Sinergy was identified when T-C of drug combination is >of addition of T-C value of single agents, additivity is identified when T-C value of drug combination is equal to addition of T-C value of single agents.
(§1) Toxicity was evaluated on the basis of body weigh reduction.

[2] = system: HT29 human colon cancer tumors; conditions: for T-C: delay to reach 1 g tumor; remark: listed apart in the source
Protocol: Balb, Nu/Nu male mice, from Harlan (Italy), were maintained, in agreement with the European Communities Council Directive no.
Fragments of HT29 human colon cancer tumors were implanted subcutaneously. The treatment started when tumors were palpable. […] Tumor growth and body weight were measured every 3 days. Tumor growth was assessed by caliper. The two diameters were recorded and the tumor weight was calculated according to the following formula: length (mm)×width^2/2. […] This delay (T-C value) was defined as the difference of time (in days) required for the treatment group (T) and the control group (C) tumors to reach a predetermined size (1 g). Sinergy was identified when T-C of drug combination is >of addition of T-C value of single agents.
as §1

[3] = system: AML-PS acute myeloid leukaemia cells; conditions: for Median Survival Time: Control 34
Protocol: SCID female mice, from Harlan (Italy), were maintained, in agreement with the European Communities Council Directive no. […] 5×10^6 in 0.2 ml AML-PS acute myeloid leukaemia cells were injected intravenously in mice.
Cytarabine was administered by intraperitoneal route at the dose of 75 mg/kg on days 2, 3, 4, 5, 6, 14, 15, 16, 17, 18, 26, 27, 28, 29, 30, 38, 39, 40, 41 42. […] Body weight was measured every 3 days. The effect of the antitumor treatment was evaluated determining the Median Survival Time of treated animals respect to control group.

[4] = system: HT29 human colon cancer tumors; experiment: In vivo activity of combination with bevacizumab, HT29 tumors implanted subcutaneously; conditions: for T-C: delay to reach 1 g tumor
[5] = Compound of formula (I) 45 mg/kg oral, day 2, 3, 4, 6, 7, 8
[6] = male, Balb Nu/Nu, mouse, in vivo, po, 45 mg/kg

O=c1[nH]cc(F)c(=O)[nH]1 [5FU, 5-fluorouracil, reference compound]
T-C ([1]; 5FU 50 mg/kg intravenous, days 1, 5, 9): 11.4 days

CCc1c2c(nc3ccc(OC(=O)N4CCC(N5CCCCC5)CC4)cc13)-c1cc3c(c(=O)n1C2)COC(=O)[C@]3(O)CC [CPT11, reference compound]
T-C ([2]; CPT11 45 mg/kg intravenous, days 1, 5, 9): 12.3 days

CN1CCN(c2ccc(OC(F)(F)F)c(Nc3ncc4c(n3)-c3c(c(C(N)=O)nn3CCO)CC4)c2)CC1 [Compound of formula (I)]
T-C [2, 5]: 10.3 days
Toxicity [2, 6]: 0/7
Median Survival Time ([3]; Compound of formula (I) 120 mg/kg oral, day 2, 3, 14, 15, 26, 27, 38, 39): 49.5
Toxicity ([3]; female, SCID, mouse, in vivo, po, 120 mg/kg): 0/7
T-C [1, 5]: 10.3 days
Toxicity [1, 6]: 0/7
T-C ([4]; Compound of formula (I) 45 mg/kg oral, day 2, 3, 4, 6, 7, 8, 10, 11, 12): 8.5 days
T-C ([4]; Compound of formula (I) 60 mg/kg oral, day 2, 3, 4, 6, 7, 8, 10, 11, 12): 16.8 days
Toxicity [4, 6]: 0/7
Toxicity ([4]; male, Balb Nu/Nu, mouse, in vivo, po, 60 mg/kg): 0/7

Nc1ccn([C@@H]2O[C@H](CO)[C@@H](O)[C@@H]2O)c(=O)n1 [Cytarabine, cytarabine, reference compound]
Median Survival Time ([3]; cytarabine 75 mg/kg intraperitoneal, days 2-6, 14-18, 26-30, 38-42): 66.5

bevacizumab [reference compound]
Toxicity ([4]; Bevacizumab 20 mg/kg, intravenous route (footnote), days 1, 5, 9, 13, body weight reduction): 0/7
T-C ([4]; Bevacizumab 20 mg/kg, intravenous route (footnote), days 1, 5, 9, 13): 4.7 days
